According to PubChem BioAssay AID330 (DTP/NCI, 2004):
“And” between values parts separate entries of the source, which are not always exact repeats. Equal entries are not always repeated. Toxic doses and inconclusive results are not listed. How the source made its calls: active means survival T/C of 150% or more; inactive means T/C below 125% in these data.

Tested on: P388 leukemia ip, CD2F1 mice, survival T/C
Test: NCI In Vivo Anticancer Drug Screen. Data for tumor model P388 Leukemia (intraperitoneal) in CD2F1 (CDF1) mice
Details: endpoint: median survival time, higher = longer survival
In short: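 Mice carrying the transplanted tumor received test compound or vehicle. Survival was recorded in each group, and the value is the treated-group measurement divided by that of the vehicle-treated control group.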

[1] = dose: 50.0 mg/kg/injection, schedule: Q01DX005 (ip), vehicle: Klucel (hydroxypropylcellulose) (HPC)
[2] = dose: 50.0 mg/kg/injection, schedule: Q01DX005 (ip), vehicle: saline with Tween-80
[3] = dose: 60.0 mg/kg/injection, schedule: Q01DX005 (ip), vehicle: Klucel (hydroxypropylcellulose) (HPC)
[4] = dose: 120.0 mg/kg/injection, schedule: Q01DX005 (ip), vehicle: Klucel (hydroxypropylcellulose) (HPC)
[5] = dose: 100.0 mg/kg/injection, schedule: Q01DX005 (ip), vehicle: saline with Tween-80
[6] = dose: 200.0 mg/kg/injection, schedule: Q01DX005 (ip), vehicle: saline with Tween-80
[7] = dose: 50.0 mg/kg/injection, schedule: Q01DX009 (ip), vehicle: Klucel (hydroxypropylcellulose) (HPC)
[8] = dose: 100.0 mg/kg/injection, schedule: Q01DX009 (ip), vehicle: Klucel (hydroxypropylcellulose) (HPC)
[9] = dose: 200.0 mg/kg/injection, schedule: Q01DX009 (ip), vehicle: Klucel (hydroxypropylcellulose) (HPC)
[10] = dose: 240.0 mg/kg/injection, schedule: Q01DX005 (ip), vehicle: Klucel (hydroxypropylcellulose) (HPC)

Measured: T/C

Nc1ccc(N=N/C(=N\Nc2ccccc2[As](=O)(O)O)C(=O)Nc2ccccc2)c(Cl)c1
inactive: dose: 6.25 mg/kg/injection, schedule: Q01DX005 (ip), vehicle: Klucel (hydroxypropylcellulose) (HPC) 119 % of control | dose: 25.0 mg/kg/injection, schedule: Q01DX005 (ip), vehicle: Klucel (hydroxypropylcellulose) (HPC) 117 % of control | [1] 110 % of control and 123 % of control

CC1CC(c2ccccc2)(c2ccccc2)CN1C (centres undefined)
inactive: dose: 12.5 mg/kg/injection, schedule: Q01DX005 (ip), vehicle: saline with Tween-80 105 % of control | dose: 25.0 mg/kg/injection, schedule: Q01DX005 (ip), vehicle: saline with Tween-80 102 % of control | [2] 102 % of control and 103 % of control

CC(CN=C(CC(=O)c1ccc(Br)cc1)c1ccccc1)N=C(CC(=O)c1ccc(Br)cc1)c1ccccc1 (centres undefined)
inactive: dose: 100.0 mg/kg/injection, schedule: Q04DX003 (ip), vehicle: saline with Tween-80 90 % of control | dose: 200.0 mg/kg/injection, schedule: Q04DX003 (ip), vehicle: saline with Tween-80 87 % of control | dose: 400.0 mg/kg/injection, schedule: Q04DX003 (ip), vehicle: saline with Tween-80 87 % of control

C=C1CCN(c2ccccc2Cl)C1=O
inactive: dose: 4.0 mg/kg/injection, schedule: Q01DX009 (ip), vehicle: saline + alcohol 100 % of control and 103 % of control and 109 % of control | dose: 8.0 mg/kg/injection, schedule: Q01DX009 (ip), vehicle: saline + alcohol 100 % of control and 104 % of control and 106 % of control | dose: 16.0 mg/kg/injection, schedule: Q01DX009 (ip), vehicle: saline + alcohol 100 % of control and 112 % of control | dose: 32.0 mg/kg/injection, schedule: Q01DX009 (ip), vehicle: saline + alcohol 99 % of control and 100 % of control and 107 % of control | dose: 64.0 mg/kg/injection, schedule: Q01DX009 (ip), vehicle: saline + alcohol 104 % of control and 105 % of control

Nc1ccc(SCCOC(c2ccccc2)(c2ccccc2)c2ccccc2)cc1
inactive: dose: 100.0 mg/kg/injection, schedule: Q04DX003 (ip), vehicle: saline 101 % of control | dose: 200.0 mg/kg/injection, schedule: Q04DX003 (ip), vehicle: saline 99 % of control | dose: 400.0 mg/kg/injection, schedule: Q04DX003 (ip), vehicle: saline 102 % of control

O=C(Nc1ccccc1)c1nn(-c2cc(S(=O)(=O)[O-])ccc2Cl)[n+](-c2ccccc2Cl)n1
inactive: [3] 101 % of control | [4] 101 % of control

CCCCCCCCCCCCCCCCCc1cccc(OC)c1
inactive: dose: 7.5 mg/kg/injection, schedule: Q01DX009 (ip), vehicle: saline with Tween-80 95 % of control | dose: 15.0 mg/kg/injection, schedule: Q01DX009 (ip), vehicle: saline with Tween-80 97 % of control | dose: 30.0 mg/kg/injection, schedule: Q01DX009 (ip), vehicle: saline with Tween-80 110 % of control

O=C1C=CC(=Nc2cc(Cl)c(O)c(Cl)c2)C=C1
inactive: [2] 96 % of control | [5] 92 % of control | [6] 88 % of control

COc1cccc2c1C(=O)c1c(O)c3c(c(O)c1C2=O)CC(O)(C(C)=O)CC3OC1CC(N)C(O)C(C)O1 (centres undefined) (tested in a mixture with another compound)
inactive: dose: 4.69 mg/kg/injection, schedule: Q04DX003 (ip), vehicle: water 105 % of control and 110 % of control and 114 % of control | dose: 9.38 mg/kg/injection, schedule: Q04DX003 (ip), vehicle: water 114 % of control and 124 % of control and 112 % of control | dose: 9.4 mg/kg/injection, schedule: Q04DX003 (ip), vehicle: water 118 % of control and 103 % of control | dose: 18.75 mg/kg/injection, schedule: Q04DX003 (ip), vehicle: water 114 % of control and 112 % of control and 116 % of control | dose: 37.5 mg/kg/injection, schedule: Q04DX003 (ip), vehicle: water 114 % of control and 124 % of control and 118 % of control | dose: 75.0 mg/kg/injection, schedule: Q04DX003 (ip), vehicle: water 109 % of control [middle of 6 runs] | dose: 150.0 mg/kg/injection, schedule: Q04DX003 (ip), vehicle: water 91 % of control and 98 % of control

O=C1CC2(CCCC2)C(=O)N1c1cccc2ccccc12
inactive: [7] 94 % of control | [8] 106 % of control | [9] 111 % of control

CCOc1cc2c(cc1C(C)(C)c1ccc(OC)cc1)OCO2
inactive: dose: 60.0 mg/kg/injection, schedule: Q01DX005 (ip), vehicle: saline with Tween-80 98 % of control | dose: 120.0 mg/kg/injection, schedule: Q01DX005 (ip), vehicle: saline with Tween-80 109 % of control and 113 % of control | dose: 240.0 mg/kg/injection, schedule: Q01DX005 (ip), vehicle: saline with Tween-80 123 % of control

COc1cccc2c1C(=O)c1c(O)c(COC3CC(N)C(O)C(C)O3)cc(O)c1C2=O (centres undefined)
inactive: dose: 1.56 mg/kg/injection, schedule: Q04DX003 (ip), vehicle: water 96 % of control | dose: 3.13 mg/kg/injection, schedule: Q04DX003 (ip), vehicle: water 96 % of control | dose: 6.25 mg/kg/injection, schedule: Q04DX003 (ip), vehicle: water 104 % of control | dose: 12.5 mg/kg/injection, schedule: Q04DX003 (ip), vehicle: water 101 % of control | dose: 25.0 mg/kg/injection, schedule: Q04DX003 (ip), vehicle: water 95 % of control

O=S(=O)(N1CCCCC1)n1nnc2cc3ccccc3cc21
inactive: dose: 50.0 mg/kg/injection, schedule: Q01DX009 (ip), vehicle: acetone 98 % of control | dose: 100.0 mg/kg/injection, schedule: Q01DX009 (ip), vehicle: acetone 97 % of control | dose: 200.0 mg/kg/injection, schedule: Q01DX009 (ip), vehicle: acetone 97 % of control

Cc1ccc(S(=O)(=O)SSN2CCOCC2)cc1
inactive: [2] 103 % of control | [5] 100 % of control | [6] 100 % of control

CC(C)c1nccn1Cc1c(Cl)cccc1Cl
inactive: [7] 102 % of control | [8] 95 % of control | [9] 96 % of control

CC(C)=CCCC(C)(O)C1CC=C(C)CC1 (centres undefined)
inactive: dose: 20.0 mg/kg/injection, schedule: Q01DX005 (ip), vehicle: Klucel (hydroxypropylcellulose) (HPC) 95 % of control | dose: 40.0 mg/kg/injection, schedule: Q01DX005 (ip), vehicle: Klucel (hydroxypropylcellulose) (HPC) 95 % of control | dose: 80.0 mg/kg/injection, schedule: Q01DX005 (ip), vehicle: Klucel (hydroxypropylcellulose) (HPC) 98 % of control | dose: 160.0 mg/kg/injection, schedule: Q01DX005 (ip), vehicle: Klucel (hydroxypropylcellulose) (HPC) 98 % of control

CCN(CC)CCNN
inactive: dose: 50.0 mg/kg/injection, schedule: Q01DX005 (ip), vehicle: saline 100 % of control | dose: 100.0 mg/kg/injection, schedule: Q01DX005 (ip), vehicle: saline 100 % of control | dose: 200.0 mg/kg/injection, schedule: Q01DX005 (ip), vehicle: saline 103 % of control

COC(=O)C1(C2CCc3cc(OC)ccc3C2=O)NC(=S)NC(=O)C1C#N (centres undefined)
inactive: dose: 7.5 mg/kg/injection, schedule: Q01DX005 (ip), vehicle: saline with Tween-80 96 % of control | dose: 15.0 mg/kg/injection, schedule: Q01DX005 (ip), vehicle: saline with Tween-80 97 % of control | dose: 30.0 mg/kg/injection, schedule: Q01DX005 (ip), vehicle: saline with Tween-80 93 % of control

CCc1nn(Cc2ccccc2)c2nc(C)c(CCc3ccccc3)c(Cl)c12
inactive: [3] 92 % of control | [4] 91 % of control | [10] 94 % of control

O=C1C(=O)c2c(ccc3ccccc23)-c2ccccc21
inactive: [1] 100 % of control | [7] 104 % of control | dose: 100.0 mg/kg/injection, schedule: Q01DX005 (ip), vehicle: Klucel (hydroxypropylcellulose) (HPC) 97 % of control | [8] 100 % of control | dose: 200.0 mg/kg/injection, schedule: Q01DX005 (ip), vehicle: Klucel (hydroxypropylcellulose) (HPC) 104 % of control | [9] 86 % of control | dose: 400.0 mg/kg/injection, schedule: Q01DX009 (ip), vehicle: Klucel (hydroxypropylcellulose) (HPC) 94 % of control

Cc1cc[c]([Sb]2[O]C(CO)C(C(O)C(O)C(=O)O)[O]2)cc1 (centres undefined)
inactive: dose: 25.0 mg/kg/injection, schedule: Q01DX005 (ip), vehicle: saline 101 % of control and 104 % of control and 105 % of control

Cn1ncc2c(N)cc(=O)[nH]c21
inactive: dose: 100.0 mg/kg/injection, schedule: Q01DX001 (ip), vehicle: saline with Tween-80 101 % of control | dose: 200.0 mg/kg/injection, schedule: Q01DX001 (ip), vehicle: saline with Tween-80 94 % of control | dose: 400.0 mg/kg/injection, schedule: Q01DX001 (ip), vehicle: saline with Tween-80 104 % of control

c1ccc2c(c1)Cc1c-2n[nH]c1-c1[nH]nc2c1Cc1ccccc1-2
inactive: [3] 96 % of control | [4] 102 % of control | [10] 96 % of control
